How the values were obtained:
[1] = tested on: heparan sulfate (HS) of RFPEC glycocalyx; assay: HS expression (coverage) in RFPEC glycocalyx by immunofluorescence confocal microscopy (Example 1); format: cell-based, rat
Experimental: (§1) Cell Culture. Rat fat pad ECs (RFPEC) at passages 20 to 39 were offspring of cells isolated from rat epididymal fat pad and provided by Dr. Mia Thi of Albert Einstein College of Medicine (Bronx, N.Y.). […] The RFPECs are immortalized, making it possible to use late passages. RFPEC were seeded on 12-14-mm diameter and 0.13-0.17-mm thick glass coverslips at a seeding density of 15,000-20,000 cells/cm^2. Cells were cultured in Dulbecco's Modified Eagle Medium (DMEM, Invitrogen, USA) with 1% penicillin-streptomycin (PS) and 10% fetal bovine serum (FBS, Gibco Life Technologies). Cells were maintained in humidity at 37° C. and 5% CO2. RFPECs reached full confluence in 3 days.
(§2) Cultured RFPECs produce thick and robust GCX in this time period. At 3 days post-seeding the RFPECs' culture medium was supplemented with 1% BSA in place of FBS to stabilize the GCX during preservation and immunolabeling (described below). For enzyme treatment experiments, 25 micro-international units per milliliter (μIU/ml) of heparinase III (Hep III; IBEX, Canada) were added to BSA-containing culture media for 2 hours to degrade HS from the GCX [46]. HepIII was washed out, and the wash-out was followed by a 16-hour incubation of RFPECs in regular BSA-containing media. In self-recovery experiments, RFPEC GCX was left to recover for 24 hours after enzyme degradation. The time frame was chosen in accordance with the 20-hour time period that is required for HS restoration to occur on the surface of ECs. For HS recovery experiments, exogenous HS and/or S1P were applied for 16 hours to accommodate the communication test as an assessment of functional glycocalyx recovery. […] After HS was degraded with HepIII, it was replaced by a 16-hour feeding of RFPECs with 59 μg/ml exogenous porcine mucosal HS (Celsus, Cincinnati, Ohio), based on published serum concentration of HS [43]. In sphingosine-1-phosphate experiments, culture media containing enzyme was substituted for media containing either 10 μM of S1P (Sigma-Aldrich) or a combination of 59 μg/ml of HS and 10 μM of S1P for 16 hours after enzyme degradation.
Immunostaining. RFPECs have high affinity to most antibodies that are available for performing immunocytochemistry. For heparan sulfate (HS), RFPEC monolayers were treated with 2% paraformaldehyde/1% glutaraldehyde in phosphate buffered saline (PBS) for fixation, treated with 2% goat serum in PBS to block non-specific ligands, and stained for three nights at 4° C. with a 1:100 10E4-epitope HS antibody (Amsbio).
As specified by the manufacturer, the HS antibody reacts with many types of heparan sulfate. The reactivity of the HS antibody is abolished after treatment with Hep III, indicating antibody specificity. […]

[2] = tested on: Cx-containing gap junctions of RFPEC; assay: Lucifer Yellow scratch-loading dye transfer assay (gap junction communication); format: cell-based, rat
Experimental: as §1, §2
Dye transfer assay, fluorescence microscopy and image analysis. Gap junction functionality was assessed by loading Lucifer Yellow in RFPECs, using a scratch technique, and observing the extent of Lucifer Yellow transfer from loaded cells to neighboring cells (FIG. 7B). Lucifer Yellow has a molecular weight of 457.3 and can only enter cells via broken membranes or via gap junctions. The scratch loading technique involved pre-incubation of RFPECs (for 1 minute) with calcium- and magnesium-free Hanks' Balanced Salt Solution (HBSS; Life Technology) containing 5 mg/ml Lucifer Yellow dye (Life Technology). A 5-μm diameter tip scribe (Ted Pella, Inc, USA) was then used to carefully create a straight scratch in the RFPEC monolayer and to allow the dye to enter the scratched cells. After the dye was loaded, it spread via open gap junctions to adjacent intact cells, with the extent of Lucifer Yellow spread reaching a plateau by 10 minutes after loading. At that point, excess dye was washed out and RFPECs were imaged at 10× magnification (dry objective) using a Zeiss Observer Z1 fluorescence microscope. From recorded images of dye transfer after scratch loading, ImageJ randomly selected dye spread locations that would be quantified along the scratch. At those random locations, lines perpendicular to the scratch axis were drawn, and the intact fluorescent cells (scratched cells excluded) were counted. […]

Substance: heparan sulfate [HS]
- HS expression in GCX, result in words (FIG. 2 legend) ([1]; 25 μIU/ml Hep III, HS 59 μg/ml, S1P 10 μM): significant recovery of HS back to baseline conditions
- HS coverage of cell surfaces ([1]; RFPEC, Hep III 2 hours, probed 16 hours after, with or without 59 μg/ml exogenous HS and/or 10 μM S1P for the 16 hours, mean±SEM): 65.58±2.26%
- Lucifer Yellow dye spread, neighboring cells receiving dye per scratch-loaded cell ([2]; RFPEC, Hep III, then 16 h with or without 59 μg/ml HS and/or 10 μM S1P, mean±SEM): 1.03±0.07 cells
- Lucifer Yellow dye transfer, result in words (FIG. 4 legend) ([2]; after Hep III, HS 59 μg/ml, S1P 10 μM): Not much Lucifer Yellow dye transfer improvement

Reference: patent US20200023001A1, “GlycoFix (Structurally And Functionally Repaired Endothelial Glycocalyx)” (Northeastern University, priority 2018, published 2020)
